Key:
human O-GlcNAcase = human O-GlcNAcase (Homo sapiens (Human), UniProt O60502); assay: Fluorescence-based assay for determination of KI values for inhibition of O-GlcNAcase activity; type: biochemical; conditions: purified human O-GlcNAcase, 4-Methylumbelliferyl N-acetyl-β-D-glucosaminide substrate, pH 7.0, Cheng-Prusoff; read-out: Fluorescence-based hOGA Ki
Procedure: Assay for Determination of KI Values for Inhibition of O-GlcNAcase Activity
Experimental Procedure for Kinetic Analyses
Enzymatic reactions are carried out in a reaction containing 50 mM NaH2PO4, 100 mM NaCl and 0.1% BSA (pH 7.0) using 2 mM 4-Methylumbelliferyl N-acetyl-β-D-glucosaminide dihydrate (Sigma M2133) dissolved in ddH2O, as a substrate. The amount of purified human O-GlcNAcase enzyme used in the reaction is 0.7 nM. Test compound of varying concentrations is added to the enzyme prior to initiation of the reaction. The reaction is performed at room temperature in a 96-well plate and is initiated with the addition of substrate. […] The slope of product production is determined for each concentration of compound tested and plotted, using standard curve fitting algorithms for sigmoidal dose response curves. The values for a four parameter logistic curve fit of the data are determined.

O-GlcNAcase = O-GlcNAcase (Rattus norvegicus, UniProt Q8VIJ5); assay: Cell-based ELISA for cellular activity of O-GlcNAcase inhibitors (O-GlcNAcylated protein level, RL-2 antibody); conditions: increase in O-GlcNAcylated protein, cells treated 24 hours, RL-2 antibody ELISA
Source text: Assay for Determination of Cellular Activity for Compounds that Inhibit O-GlcNAcase Activity
Inhibition of O-GlcNAcase, which removes O-GlcNAc from cellular proteins, results in an increase in the level of O-GlcNAcylated protein in cells. An increase in O-GlcNAcylated protein can be measured by an antibody, such as RL-2, that binds to O-GlcNAcylated protein. The amount of O-GlcNAcylated protein:RL2 antibody interaction can be measured by enzyme linked immunosorbant assay (ELISA) procedures.

human O-GlcNAcase, sequence (O60502 whole entry): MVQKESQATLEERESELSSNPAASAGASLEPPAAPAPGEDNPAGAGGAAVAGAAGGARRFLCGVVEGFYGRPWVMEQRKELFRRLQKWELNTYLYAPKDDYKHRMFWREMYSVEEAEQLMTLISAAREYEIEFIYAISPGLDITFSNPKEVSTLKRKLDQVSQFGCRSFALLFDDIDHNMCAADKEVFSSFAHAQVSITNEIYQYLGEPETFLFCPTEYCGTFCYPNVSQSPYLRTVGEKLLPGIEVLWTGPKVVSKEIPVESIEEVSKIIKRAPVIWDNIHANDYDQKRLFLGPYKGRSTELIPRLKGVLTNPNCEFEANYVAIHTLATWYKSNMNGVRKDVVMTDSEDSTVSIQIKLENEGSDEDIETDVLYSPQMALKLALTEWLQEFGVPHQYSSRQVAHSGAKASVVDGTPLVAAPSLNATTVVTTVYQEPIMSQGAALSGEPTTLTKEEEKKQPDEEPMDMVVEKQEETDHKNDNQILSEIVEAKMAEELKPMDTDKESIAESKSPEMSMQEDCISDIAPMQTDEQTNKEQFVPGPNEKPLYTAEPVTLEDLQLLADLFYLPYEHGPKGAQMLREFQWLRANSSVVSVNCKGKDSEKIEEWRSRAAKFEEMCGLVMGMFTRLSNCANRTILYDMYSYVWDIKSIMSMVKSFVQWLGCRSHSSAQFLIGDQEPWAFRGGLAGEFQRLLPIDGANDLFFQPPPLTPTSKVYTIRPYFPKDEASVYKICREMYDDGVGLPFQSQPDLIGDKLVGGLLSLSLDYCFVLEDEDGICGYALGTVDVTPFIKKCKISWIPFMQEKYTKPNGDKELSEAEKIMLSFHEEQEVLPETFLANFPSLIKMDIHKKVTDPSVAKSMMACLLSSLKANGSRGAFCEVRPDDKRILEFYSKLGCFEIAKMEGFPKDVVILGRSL
O-GlcNAcase, sequence (Q8VIJ5 whole entry, looked up): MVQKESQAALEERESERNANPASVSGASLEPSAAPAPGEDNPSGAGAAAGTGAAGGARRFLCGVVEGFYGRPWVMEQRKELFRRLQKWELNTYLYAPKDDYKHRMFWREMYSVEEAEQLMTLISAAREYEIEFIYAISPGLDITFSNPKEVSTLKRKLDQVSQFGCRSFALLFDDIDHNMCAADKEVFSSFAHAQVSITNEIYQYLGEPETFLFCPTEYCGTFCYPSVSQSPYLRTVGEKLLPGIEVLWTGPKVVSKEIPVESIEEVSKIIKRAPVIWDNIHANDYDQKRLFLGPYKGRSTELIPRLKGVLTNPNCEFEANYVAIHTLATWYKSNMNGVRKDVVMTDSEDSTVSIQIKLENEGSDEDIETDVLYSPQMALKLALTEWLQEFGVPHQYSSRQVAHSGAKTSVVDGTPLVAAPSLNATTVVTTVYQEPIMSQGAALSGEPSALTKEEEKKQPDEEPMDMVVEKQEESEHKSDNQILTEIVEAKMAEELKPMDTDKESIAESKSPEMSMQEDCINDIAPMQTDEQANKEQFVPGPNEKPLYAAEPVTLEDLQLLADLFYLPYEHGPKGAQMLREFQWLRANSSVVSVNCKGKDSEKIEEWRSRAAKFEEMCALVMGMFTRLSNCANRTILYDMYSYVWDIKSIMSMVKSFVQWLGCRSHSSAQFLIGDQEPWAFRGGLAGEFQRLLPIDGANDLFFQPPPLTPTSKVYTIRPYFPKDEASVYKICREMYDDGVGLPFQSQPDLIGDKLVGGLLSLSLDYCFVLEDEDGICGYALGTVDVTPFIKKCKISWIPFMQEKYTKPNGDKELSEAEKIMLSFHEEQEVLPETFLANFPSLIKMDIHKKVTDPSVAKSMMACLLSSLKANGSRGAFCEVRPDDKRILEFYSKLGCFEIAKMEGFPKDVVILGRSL

Question: How did the Ki (human O-GlcNAcase) turn out when CN(C)C1=N[C@@H]2[C@@H](OCc3ccccc3)[C@H](COCc3ccccc3)[C@@H](C(O)C3SCCCS3)O[C@@H]2S1 (some centres unmarked) [Example 96] was run?
Answer: 0.19 nM

Question: And the EC50 (O-GlcNAcase)?
Answer: 4.55 nM

From patent publication US8901087B2, “Selective glycosidase inhibitors and uses thereof” (priority 2010, dated 2014)
